Like-named read-outs stand apart in the source and are kept apart here.
How the values were obtained:
[1] = system: carrageenan induced edema; assay: Anti-inflammatory activity, carrageenan induced edema (paw volume, plethysmometer); assay type: in vivo, mice; conditions: for inhibition in vivo at 5 mg/kg: Mus musculus, po, dose 5 mg/kg b.m (p.o.), n = 6, read-out: Edema inhibition (Means ± E.M); for anti-inflammatory activity (in words): grading in the structure activity discussion
Method: (§1) Female albino mice (16–18 g) and Sprague Dawley […] (100 g) obtained from the Theodor Bilharz Research Institute (TBRI, Giza city, Egypt) were used. Approval of the institutional animal ethical committee for the animal studies was obtained from the Office of Environmental Health and Radiation Safety, ACUC Protocol 1096-5. The animals were maintained according to accepted standards of animal care.
Newly synthesized thienopyrimidine derivatives were dissolved in 0.5% carboxymethyl cellulose (CMC) as a homogeneous solution and administered […]. One hundred and eight […] were divided into eighteen groups, each group consisting of six animals. Anti-inflammatory activity of the compounds was studied in mice using carrageenan induced edema. A suspension of the tested compound and the reference drug, indomethacin in aqueous solution was administered orally at a dose 5 mg/kg. Control animals were treated with 0.5% CMC only. After 30 min, 0.1 mL of freshly prepared 1.0% carrageenan solution (in formol saline) was injected into the sub-plantar region of the right hind paw according to Hernandez-Perez. The right paw volume was measured using a digital plethysmometer (Model 7150, Ugo Basile, Varese, Italy), directly before and after 1, 2, 3 h, intervals after administration of the tested compounds.

[2] = system: Gastric Ulceration in mice; assay: Ulcerogenic activity (gastric ulceration in mice); assay type: in vivo; conditions: oral, 6 h; for mean ulcer lesions ± SEM: n = 6
Method: as §1
Seventy-two mice were divided into twelve groups. Ulcerogenic activity was evaluated after oral administration of the tested compounds or indomethacin at doses of 10, 50, and 100 mg/kg. Control mice received 0.5% CMC. Food but not water was removed 24 h before administration of the tested compounds. After 6 h, the mice were sacrificed; the stomach was removed and opened along the greater curvature, washed with distilled water and cleaned gently by dipping in saline. The mucosa damage for each stomach was examined using a stereoscopic microscope and compared with the reference drug indomethacin according to the reported procedure.

Acute toxicity (LD50) = conditions: mouse, in vivo, ip; male adult mice, i.p., mortality after 24 h, graphical method
Method: To determine the acute toxicity of the compounds, the LD50 values for compounds 2, 3, 6, 9 and 10 were determined by injecting different gradual increased doses of the tested compounds into male adult mice, then calculating the dose corresponding to 50% animal death (Table 3).
Groups of male adult mice, each of six animals, were injected i.p. with graded doses of each of the test compounds. The percentage of mortality in each group of animals was determined 24 h, after injection. Computation of LD50 was processed by a graphical method.

Structure (SMILES)	inhibition in vivo at 5 mg/kg ([1]; 1 h)	inhibition in vivo at 5 mg/kg ([1]; 2 h)	inhibition in vivo at 5 mg/kg ([1]; 3 h)	anti-inflammatory activity (in words) [1]	number of mice lesions bigger than 0.5 mm in length per total no. of mice ([2]; dose 10 mg/kg)	mean ulcer lesions ± SEM ([2]; dose 10 mg/kg)	number of mice lesions bigger than 0.5 mm in length per total no. of mice ([2]; dose 50 mg/kg)	mean ulcer lesions ± SEM ([2]; dose 50 mg/kg)	number of mice lesions bigger than 0.5 mm in length per total no. of mice ([2]; dose 100 mg/kg)	mean ulcer lesions ± SEM ([2]; dose 100 mg/kg)	LD50 at 24 h (Acute toxicity (LD50))
COc1ccc(-c2nc3sc4c(c3c3nc5ccccc5c(=O)n23)CCCCCC4)cc1 [Compound 5, 8-(4-Methoxyphenyl)-6-oxo-cycloocteno[4.5]thino[2,3-d]pyrimidino[4.3-b]quinazoline]	11.7 ± 1.1%	13.2 ± 1.2%	15.2 ± 1.5%	weak							
COc1ccc2c(c1)c(CC(=O)O)c(C)n2C(=O)c1ccc(Cl)cc1 [Indomethacin, reference compound]	44.7 ± 1.2%	52.4 ± 1.2%	61.2 ± 1.3%		3/6	1.4 ± 0.2 mm	5/6	1.9 ± 0.2 mm	6/6	2.1 ± 0.2 mm	1817 ± 15 mg/kg
COc1ccc(-c2nc3sc4c(c3c3nnnn23)CCCCCC4)cc1 [Compound 6, 5-(4-Methoxyphenyl)-cycloocteno[4.5]thieno[2.3-d]tetrazolo[4.5-e]pyrimidine]	34.5 ± 1.2%	42.1 ± 1.3%	48.2 ± 1.2%	high							2047 ± 12 mg/kg
COc1ccc(C2=Nc3sc4c(c3C3=NNC(=O)CN23)CCCCCC4)cc1 [Compound 8, 6-(4-Methoxyphenyl)-3-oxo-2,4-dihydrocycloocteno[4,5]thieno[2,3-d]triazino-[1,2,4][3,4-a]pyrimidine]	21.3 ± 1.2%	24.6 ± 1.1%	26.5 ± 1.2%	moderate							
COc1ccc(-c2nc3sc4c(c3c3nnc(CC#N)n23)CCCCCC4)cc1 [Compound 3, 5-(4-Methoxyphenyl)-3-cyanomethylcycloocteno[4.5]thieno[2.3-d]triazolo[1,2,4]-[4,5-a]pyrimidine]	37.2 ± 1.3%	46.3 ± 1.5%	54.4 ± 1.1%	high							2131 ± 13 mg/kg
COc1ccc(-c2nc3sc4c(c3c3n[nH]c(=O)n23)CCCCCC4)cc1 [Compound 9, 5-(4-Methoxy)phenyl-3-oxo-2H-cycloocteno[4,5]thieno[2,3-d][1,2,4]triazolo[4,5-a]pyrimidine]	31.2 ± 1.2%	35.1 ± 1.5%	40.2 ± 1.6%	high							1832 ± 12 mg/kg
COc1ccc(-c2nc3sc4c(c3c3nnc(Nc5ccccc5)n23)CCCCCC4)cc1 [Compound 12]	19.4 ± 1.6%	21.3 ± 1.3%	23.3 ± 1.2%	moderate							
COc1ccc(-c2nc3sc4c(c3c3n[nH]c(=O)c(=O)n23)CCCCCC4)cc1 [Compound 7, 6-(4-Methoxyphenyl)-3,4-dioxo-2H-cycloocteno[4.5]thieno[2,3-d]triazino[1,2.4]-[3,4-a]pyrimidine]	20.8 ± 1.4%	22.3 ± 1.3%	25.1 ± 1.4%	moderate							
COc1ccc(-c2nc3sc4c(c3c3nnc(-c5ccccc5)n23)CCCCCC4)cc1 [Compound 14, 5-(4-Methoxyphenyl)-4-phenylcycloocteno[4,5]thieno[2,3-d][1,2,4]triazolo[4,5-c]pyrimidine]	7.3 ± 1.1%		11.2 ± 1.5%	weak							
COc1ccc(C2=Nc3sc4c(c3C3=NCC(=O)N23)CCCCCC4)cc1 [Compound 4]	16.5 ± 1.3%	17.2 ± 1.1%	19.3 ± 1.2%	weak							
COc1ccc(-c2nc(NN)c3c4c(sc3n2)CCCCCC4)cc1 [Compound 2, 2-(4-Methoxyphenyl)-4-hydrazinocycloocteno[4.5]thieno[2.3-d]pyrimidine]	42.3 ± 1.1%	49.3 ± 1.1%	57.1 ± 1.4%	high	0/6	0 mm	0/6	0 mm	0/6	0 mm	2514 ± 12 mg/kg
COc1ccc(-c2nc3sc4c(c3c3nnc(C)n23)CCCCCC4)cc1 [Compound 10, 5-(4-Methoxyphenyl)-3-methyl-2H-cycloocteno[4,5]thieno[2,3-d][1,2,4]triazolo-[4,5-a] pyrimidine]	39.1 ± 1.5%	48.4 ± 1.2%	55.6 ± 1.1%	high	0/6	0 mm	0/6	0 mm	0/6	0 mm	2341 ± 11 mg/kg

From article PMC6269734, “Synthesis and Pharmacological Activities of Some New Triazolo- and Tetrazolopyrimidine Derivatives” (Molecules, 2013)
